Results: US20120021079A1, “Garcinia Mangostana L. and Iridoid Based Formulations” (priority 2010, published 2012)

Experiments:
E. coli PQ37 [1] = experiment: Anti-genotoxicity test (SOS-chromotest with 4NQO, Example Three); assay type: cell-based; conditions: for induction factor of 4NQO plus iridoid versus vehicle blank: 250 μg mL^−1 iridoid plus 1.25 μg mL^−1 4NQO; for Induction factor: 250 μg ml^−1 DAA or AA together with 1.25 μg ml^−1 4NQO, E. coli PQ37
Experimental: The primary DNA damage test was performed again, similar to the method described above. […] Induction factors were calculated in the same manner as described above.

[2] = Intra- and inter-day precision and stability assays of iridoids by HPLC-PDA; assay type: physicochemical; conditions: 3 consecutive days, HPLC sample solutions
Experimental: The limits of detection (LOD) and quantitation (LOQ) were defined as the lowest concentrations of analytes in a sample that can be detected and quantified. These LOD and LOQ limits were determined on the basis of signal-to-noise ratios (S/N) of 3:1 and 10:1, respectively. The working solutions of standards 1 and 2 for LOD and LOQ were prepared by diluting them sequentially. The intra- and inter-day precision assays, as well as stability tests were performed by following the method applied to the sample analysis for 3 consecutive days. Accuracy of the method (recovery) was assessed by the recovery percentage of iridoids 1 and 2 in the spiked samples. […] The recovery percentage was calculated using the ratio of concentration detected (actual) to those spiked (theoretical). Variation was evaluated by the relative standard deviation (RSD) of triplicate injections in the HPLC experiments.
The limits of detection (LOD) and quantitation (LOQ) were defined as the lowest concentrations of analytes in a sample that can be detected and quantified. These LOD and LOQ limits were determined on the basis of signal-to-noise ratios (S/N) of 3:1 and 10:1, respectively. […] Repeatability is the degree of agreement between results, when experimental conditions are maintained as constant as possible, and is expressed as the relative standard deviation (RSD) of replicates. […]

E. coli PQ37 [3] = assay type: cell-based; conditions: 250 ug mL^−1 iridoid plus 1.25 ug mL^−1 4NQO; blank = 1
Experimental: The SOS-chromotest in E. coli PQ37 was used to determine the potential for iridoids in noni fruit from French Polynesia to prevent primary DNA damage. […] Replicate samples were evaluated. […] Following incubation with the samples, 5-bromo-4-chloro-3-indolyl-β-D-galactopyranoside was added to the wells to detect β-galactosidase enzyme activity, which is induced during SOS repair of damaged DNA. The samples were again incubated for 90 minutes and the absorbances of the samples, blank and positive control were measured at 620 nm with a microplate reader. The β-galactosidase enzyme activity induction factor of each material was calculated by dividing the absorbance of the sample at 620 nm by that of the blank, while also correcting for cell viability.

With O=C(O)C1=CO[C@@H](O[C@@H]2O[C@H](CO)[C@@H](O)[C@H](O)[C@H]2O)[C@@H]2C(CO)=C[C@H](O)[C@H]12 [DAA, deacetylasperulosidic acid] the “induction factor of 4NQO plus iridoid versus vehicle blank” value (E. coli PQ37 [1]) was “no statistical difference from that of the vehicle blank”, the Induction factor (E. coli PQ37 [1]) was 1.08 ± 0.12 and the “stability during investigation period” value [2] was “stable during investigation period”. For the same compound, the “induction factor (mean±standard deviation)” value (E. coli PQ37 [3]) was 0.98±0.02.
For CC(=O)OCC1=C[C@H](O)[C@@H]2C(C(=O)O)=CO[C@@H](O[C@@H]3O[C@H](CO)[C@@H](O)[C@H](O)[C@H]3O)[C@H]12 [AA, asperulosidic acid], the “induction factor of 4NQO plus iridoid versus vehicle blank” value (E. coli PQ37 [1]) was “no statistical difference from that of the vehicle blank”, the Induction factor (E. coli PQ37 [1]) was 1.06 ± 0.03 and the “stability during investigation period” value [2] was “stable during investigation period”.
